Reference: patent US11077115B2, “Rorgamma modulators and uses thereof” (Genfit, priority 2017, dated 2021)
pIC50: −log10 of the molar value.

Legend:
[1] = molecular target: T1, human RORγt (Homo sapiens, UniProt P51449); assay: IL-17 secretion from EL4 murine lymphoma overexpressing human RORγt; format: cell-based; parameters: V5-His (named only through the vector pcDNA3.1D/V5-His-TOPO); expressed in transfected cells; conditions: IL-17 secretion inhibition in human RORγt-transfected EL4 Tcells, PMA/ionomycin stimulation
T1 sequence (P51449 1-497 isoform P51449-2): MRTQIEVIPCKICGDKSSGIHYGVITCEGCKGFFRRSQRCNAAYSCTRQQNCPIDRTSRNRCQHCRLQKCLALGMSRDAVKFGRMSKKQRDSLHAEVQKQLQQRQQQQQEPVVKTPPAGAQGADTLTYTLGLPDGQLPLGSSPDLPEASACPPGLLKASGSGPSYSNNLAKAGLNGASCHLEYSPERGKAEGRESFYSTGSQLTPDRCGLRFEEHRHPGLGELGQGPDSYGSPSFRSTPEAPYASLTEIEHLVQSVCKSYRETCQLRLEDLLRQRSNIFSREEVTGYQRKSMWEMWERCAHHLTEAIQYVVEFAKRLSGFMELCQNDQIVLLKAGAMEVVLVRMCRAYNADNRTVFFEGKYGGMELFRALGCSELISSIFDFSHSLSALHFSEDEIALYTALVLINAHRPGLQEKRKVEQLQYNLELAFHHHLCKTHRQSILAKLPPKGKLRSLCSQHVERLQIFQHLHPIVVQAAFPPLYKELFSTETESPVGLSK
Description: Murine EL-4 lymphoma cell line overexpressing human RORγt was used in this functional assay to assess compound ability to inhibit IL-17 cytokine secretion.
EL-4 cells are maintained in a standard culture medium RPMI supplemented with 10% fetal calf serum, 1% sodium pyruvate, 1% essential amino acids and 1% antibiotics at 37° C. in a humidified atmosphere of 5% CO2 and 95% air. Culture medium was changed every 2 days. EL4 cells were transfected with a plasmid encoding hRORγt (sequence identical to published sequence NM 001001523). […] Briefly, 1 μg of DNA/1 million cells was served to transfect EL-4 cells. Cell/DNA suspension was transferred into certified cuvette and the electroporation of RORγt plasmid was carried out using appropriate Nucleofector® program.
Cells were seeded in 96 well plates at a density of 150000 cells/well then treated with compounds of this invention at indicated concentrations and incubated for 24 hours at 37° C. in a humidified atmosphere of 5% CO2 and 95% air. EL-4 cells were pretreated with test compounds (RORγ modulators) and stimulated with PMA (10 ng/mL) and ionomycin (1 μM final concentration) in the presence of test compound concentrations for additional 24 h at 37° C. in a humidified atmosphere of 5% CO2 and 95% air. Subsequently, supernatants were collected (after centrifugation at 300 g for 10 minutes) to determine the concentrations of IL-17 by HTRF (CisBio, France) or ELISA (R&D Systems Europe) according to the manufacturer's protocols.

[2] = molecular target: T1, human RORγt; assay: RORE Luciferase/RORγt transactivation assay (IL-17 promoter luciferase reporter in COS-7 cells); format: cell-based; parameters: V5-His (named only through the vector pcDNA3.1D/V5-His-TOPO); expressed in transfected cells; host or cells: COS-7 (monkey kidney); conditions: RORγt activity inhibition, luciferase activity in transfected COS-7 cells, 20 h
Outline: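 COS-7 cells co-transfected with human RORγt and luciferase reporter driven by 4.3 kb IL-17 promoter with CNS enhancer, seeded in serum-free, phenol red-free DMEM. Compounds added at 0.3% DMSO final; luciferase read by Steady-Glo luminescence. IC50 (μM) and Emax (%) reported.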

[3] = molecular target: T2, RORγt ligand-binding domain (RORγt-LBD) (Homo sapiens, UniProt P51449); assay: Time-resolved FRET (TR-FRET) RORγt coactivator assay (RIP140 peptide displacement); format: biochemical; conditions: ligand-dependent coactivator-RORγt binding
T2 construct: 20 nM recombinantly expressed RORγ-LBD fused to GST
T2 sequence (P51449 269-508 limits assumed): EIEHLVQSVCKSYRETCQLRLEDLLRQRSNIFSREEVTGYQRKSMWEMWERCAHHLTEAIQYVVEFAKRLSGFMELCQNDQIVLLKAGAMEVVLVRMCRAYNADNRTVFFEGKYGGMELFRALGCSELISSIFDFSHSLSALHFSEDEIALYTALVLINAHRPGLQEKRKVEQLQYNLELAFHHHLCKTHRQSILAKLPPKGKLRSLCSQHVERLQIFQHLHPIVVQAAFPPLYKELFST
Outline: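 GST-tagged RORγt-LBD (20 nM) with 30 nM biotinylated RIP140 peptide, 1 nM streptavidin-terbium and 20 nM d2-anti-GST in CHAPS buffer with DTT, EDTA, BSA; 1% DMSO. Compounds 0.3 nM–30 μM, 2 h dark, room temperature. Coactivator displacement lowers TR-FRET signal; IC50 (μM) and Emax (%) derived.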

Structure (SMILES) | pIC50 [1] | pIC50 [2] | pIC50 [3]
Cc1ccc(C(NC(=O)Cc2cc(N3CCS(=O)(=O)CC3)ccc2C)c2ccc(C)o2)c(N2CCCCC2)c1 (stereo not drawn) [Cpd. 5, 2-[5-(1,1-dioxo-1-thiomorpholin-4-yl)-2-methylphenyl]-N-{[4-methyl-2-(piperidin-1-yl)phenyl](5-methylfuran-2-yl)methyl}acetamide] | 6.00 to 7.00 | 6.00 to 7.00 | 6.00 to 7.00
Cc1ccc(C(NC(=O)Cc2ccc(N3CCS(=O)(=O)CC3)c(C)c2)c2ccc(C)o2)c(C(F)(F)F)c1 (stereo not drawn) [Cpd. 10, 2-[4-(1,1-dioxo-1-thiomorpholin-4-yl)-3-methylphenyl]-N-{[4-methyl-2-(trifluoromethyl)phenyl](5-methylfuran-2-yl)methyl}acetamide] | 6.00 to 7.00 | 6.00 to 7.00 | 6.00 to 7.00
Cc1ccc(C(NC(=O)Cc2ccc(N3CCS(=O)(=O)CC3)c(C)c2)c2ccc(C)o2)c(Br)c1 (stereo not drawn) [Cpd. 11, N-[(2-bromo-4-methylphenyl)(5-methylfuran-2-yl)methyl]-2-[4-(1,1-dioxo-1-thiomorpholin-4-yl)-3-methylphenyl]acetamide] | 6.00 to 7.00 | 6.00 to 7.00 | > 6.00
Cc1ccc(C(NC(=O)Cc2ccc(N3CCS(=O)(=O)CC3)c(C)c2)c2ccc(C)o2)c(N2CCCCC2)c1 (stereo not drawn) [Cpd. 12, 2-[4-(1,1-dioxo-1-thiomorpholin-4-yl)-3-methylphenyl]-N-{[4-methyl-2-(piperidin-1-yl)phenyl](5-methylfuran-2-yl)methyl}acetamide] | > 6.00 | > 7.00 | > 6.00
COc1ccc(C(NC(=O)Cc2ccc(N3CCS(=O)(=O)CC3)c(C)c2)c2ccc(C)o2)c(N2CCC(C)CC2)c1 (stereo not drawn) [Cpd. 13, 2-[4-(1,1-dioxo-1-thiomorpholin-4-yl)-3-methylphenyl]-N-{[4-methoxy-2-(4-methylpiperidin-1-yl)phenyl](5-methylfuran-2-yl)methyl}acetamide] | 6.00 to 7.00 | 6.00 to 7.00 | 6.00 to 7.00
COc1ccc(C(NC(=O)Cc2ccc(N3CCS(=O)(=O)CC3)c(C)c2)c2ccc(C)o2)c(N(C)C)c1 (stereo not drawn) [Cpd. 15, N-{[2-(dimethylamino)-4-methoxyphenyl](5-methylfuran-2-yl)methyl}-2-[4-(1,1-dioxo-1-thiomorpholin-4-yl)-3-methylphenyl]acetamide] | > 6.00 | 6.00 to 7.00 | > 6.00
Cc1ccc(C(NC(=O)Cc2ccc(N3CCS(=O)(=O)CC3)cc2C)c2ccc(C)o2)c(C)c1 (stereo not drawn) [Cpd. 19, N-[(2,4-dimethylphenyl)(5-methylfuran-2-yl)methyl]-2-[4-(1,1-dioxo-1-thiomorpholin-4-yl)-2-methylphenyl]acetamide] | > 6.00 | > 7.00 | > 6.00
Cc1ccc(C(NC(=O)Cc2cnc(N3CCS(=O)(=O)CC3)nc2)c2ccc(C)o2)c(N2CCCCC2)c1 (stereo not drawn) [Cpd. 20, 2-[2-(1,1-dioxo-1-thiomorpholin-4-yl)pyrimidin-5-yl]-N-{[4-methyl-2-(piperidin-1-yl)phenyl](5-methylfuran-2-yl)methyl}acetamide] | > 6.00 | > 7.00 | > 6.00
Cc1ccc(C(NC(=O)Cc2ccc(N3CCS(=O)(=O)CC3)cc2C)c2ccc(C)o2)c(Br)c1 (stereo not drawn) [Cpd. 21, N-[(2-bromo-4-methylphenyl)(5-methylfuran-2-yl)methyl]-2-[4-(1,1-dioxo-1-thiomorpholin-4-yl)-2-methylphenyl]acetamide] | 6.00 to 7.00 | > 7.00 | > 6.00
Cc1ccc(C(NC(=O)Cc2ccc(N3CCOCC3)nc2)c2ccc(C)o2)c(N2CCCCC2)c1 (stereo not drawn) [Cpd. 25, N-{[4-methyl-2-(piperidin-1-yl)phenyl](5-methylfuran-2-yl)methyl}-2-[6-(morpholin-4-yl)pyridin-3-yl]acetamide] | 6.00 to 7.00 | 6.00 to 7.00 | > 6.00

Other lines, results leading:

pIC50 [1] | pIC50 [2] | pIC50 [3] | Structure (SMILES)
> 6.00 | > 7.00 | > 6.00 | Cc1ccc(C(NC(=O)Cc2ccc(N3CCS(=O)(=O)CC3)cc2)c2ccc(C)o2)c(N2CCCCC2)c1 (stereo not drawn) [Cpd. 6, 2-[4-(1,1-dioxo-1-thiomorpholin-4-yl)phenyl]-N-{[4-methyl-2-(piperidin-1-yl)phenyl](5-methylfuran-2-yl)methyl}acetamide]
6.00 to 7.00 | 6.00 to 7.00 | > 6.00 | Cc1ccc(C(NC(=O)Cc2ccc(N3CCS(=O)(=O)CC3)cc2)c2ccccc2)c(Br)c1 (stereo not drawn) [Cpd. 9, N-[(2-bromo-4-methylphenyl)(phenyl)methyl]-2-[4-(1,1-dioxo-1-thiomorpholin-4-yl)phenyl]acetamide]
> 6.00 | 6.00 to 7.00 | > 6.00 | COc1ccc(C(NC(=O)Cc2ccc(N3CCS(=O)(=O)CC3)c(C)c2)c2ccc(C)o2)c(N2CC3CC3C2)c1 (stereo not drawn) [Cpd. 16, N-[(2-{3-azabicyclo[3.1.0]hexan-3-yl}-4-methoxyphenyl)(5-methylfuran-2-yl)methyl]-2-[4-(1,1-dioxo-1-thiomorpholin-4-yl)-3-methylphenyl]acetamide]
> 6.00 | > 7.00 | > 6.00 | Cc1ccc(C(NC(=O)Cc2ccc(N3CCS(=O)(=O)CC3)cc2C)c2ccc(C)o2)c(N2CCCCC2)c1 (stereo not drawn) [Cpd. 18, 2-[4-(1,1-dioxo-1-thiomorpholin-4-yl)-2-methylphenyl]-N-{[4-methyl-2-(piperidin-1-yl)phenyl](5-methylfuran-2-yl)methyl}acetamide]
6.00 to 7.00 | > 7.00 | > 6.00 | Cc1ccc(C(NC(=O)Cc2ccc(N3CCS(=O)(=O)CC3)cc2)c2ccccc2)c(N2CC3CC3C2)c1 (stereo not drawn) [Cpd. 22, N-[(2-{3-azabicyclo[3.1.0]hexan-3-yl}-4-methylphenyl)(phenyl)methyl]-2-[4-(1,1-dioxo-1-thiomorpholin-4-yl)phenyl]acetamide]
6.00 to 7.00 | > 7.00 | 6.00 to 7.00 | Cc1ccc(C(NC(=O)Cc2ccc(N3CCS(=O)(=O)CC3)c(C)c2)c2ccccc2)c(N2CC3CC3C2)c1 (stereo not drawn) [Cpd. 23, N-[(2-{3-azabicyclo[3.1.0]hexan-3-yl}-4-methylphenyl)(phenyl)methyl]-2-[4-(1,1-dioxo-1-thiomorpholin-4-yl)-3-methylphenyl]acetamide]
> 6.00 | > 7.00 | > 6.00 | Cc1ccc(C(NC(=O)Cc2ccc(N3CCS(=O)(=O)CC3)nc2)c2ccc(C)o2)c(N2CCCCC2)c1 (stereo not drawn) [Cpd. 27, 2-[6-(1,1-dioxo-1-thiomorpholin-4-yl)pyridin-3-yl]-N-{[4-methyl-2-(piperidin-1-yl)phenyl](5-methylfuran-2-yl)methyl}acetamide]
6.00 to 7.00 | 6.00 to 7.00 | > 6.00 | Cc1ccc(C(NC(=O)Cc2cc(N3CCS(=O)(=O)CC3)ccc2C)c2ccc(C)o2)c(N2CC3CC3C2)c1 (stereo not drawn) [Cpd. 28, N-[(2-{3-azabicyclo[3.1.0]hexan-3-yl}-4-methylphenyl)(5-methylfuran-2-yl)methyl]-2-[5-(1,1-dioxo-1-thiomorpholin-4-yl)-2-methylphenyl]acetamide]
